13 molecules from patent US6420398B2, “Urea derivatives having nitrogen aromatic heterocycle” (Santen Pharmaceutical Co., Ltd., priority 1998, dated 2002) can be followed below.

SMILES strings stand for the structures. Counter-ions that a name gives are not always drawn.

For data set [1], the system named is TNF-α production induced by lipopolysaccharide (LPS) stimulation. The experiment in a line: Inhibitory effects on TNF-α production induced by LPS stimulation, in vivo test in rats (method of McGeehan et al.). The settings on record: Rattus norvegicus, 2 h; female rats; LPS from Salmonella s.c.; oral administration of 10 mg/kg test compound immediately after LPS; plasma TNF-α by ELISA two hours after LPS; read-out: TNF-α production inhibition rate (%). The procedure:
Inhibitory effects on TNF-α production induced by lipopolysaccharide (LPS) stimulation were studied by in vivo tests according to the method of McGeehan et al. (Nature, 370, 558-561 (1994)).
Female rats (five per group), body weight of about 200 g, about eight weeks old, were used as test animals. LPS from Salmonella was dissolved in physiological saline to prepare an LPS solution (1 mg/ml). Test compounds were dissolved or uniformly suspended in a 1% aqueous methylcellulose solution to give test compound preparation liquids.
The above-mentioned LPS solution (0.5 ml/kg) was subcutaneously administered to the rat. Immediately after the LPS administration, the test compound preparation liquid (5 ml/kg, containing 10 mg/kg test compound) was orally administered. Two hours after the LPS administration, blood was collected from abdominal aorta and was centrifuged at 4° C. and 3000 rpm for ten minutes. TNF-α levels in the obtained plasma were measured with a rat TNF-α -specific ELISA kit. TNF-α was not observed in the plasma with respect to an LPS-nonadministered group (control).
TNF-α production inhibition rates of the test compounds were determined by the following equation.
Inhibition rate (%)=[(A−B)/A]×100
A: TNF-α level in plasma of test compound-nonadministered group
B: TNF-α level in plasma of test compound-administered group
On the technique in general: An ELISA detects its analyte on a solid surface through an enzyme-linked reagent.

For orientation: inhibition means the relative decrease from the control value, in per cent. Consider `CC(=O)SCCN(CCC1CCCCC1)C(=O)NCCc1ccncc1` [Compound No. 4-2, 1-[2-(Acetylthio)ethyl]-1-(2-cyclohexylethyl)-3-[2-(4-pyridyl)ethyl]urea], for which the inhibition at 10 mg/kg in data set [1] amounted to 72.5%.
The melting point is the temperature, or range, at which the solid turns liquid. `CC(=O)SCCN(CCC1CCCCC1)C(=O)NCCCc1ccncc1` [Compound No. 4-3, 1-[2-(Acetylthio)ethyl]-1-(2-cyclohexylethyl)-3-[3-(4-pyridyl)propyl]urea] displayed a melting point of 70 °C. Moreover, in data set [1], the inhibition at 10 mg/kg was determined as 80.8%.
Regarding `CC(=O)SCCN(CCc1ccccc1)C(=O)NCCCc1cccnc1` [Compound No. 4-15, 1-[2-(Acetylthio)ethyl]-1-phenethyl-3-[3-(3-pyridyl)propyl]urea], the inhibition at 10 mg/kg in data set [1] came to 77.3%.
On the same count and under the same terms, in the case of `CC(=O)SCCN(CCc1ccccc1)C(=O)NCCCc1ccncc1` [Compound No. 4-16, 1-[2-(Acetylthio)ethyl]-1-phenethyl-3-[3-(4-pyridyl)propyl]urea] it was 77.2%.
Take `CC(=O)SCCN(CCCc1ccccc1)C(=O)NCCCc1ccncc1` [Compound No. 4-17, 1-[2-(Acetylthio)ethyl]-1-(3-phenylpropyl)-3-[3-(4-pyridyl)propyl]urea]: the inhibition at 10 mg/kg in data set [1] is 70.6%.
For `CC(=O)SCCN(CCc1ccc(F)cc1)C(=O)NCCCc1ccncc1` [Compound No. 4-18, 1-[2-(Acetylthio)ethyl]-1-(4-fluorophenethyl)-3-[3-(4-pyridyl)propyl]urea], in data set [1], the inhibition at 10 mg/kg turned out to be 64.2%.
On the same count and under the same terms, in the case of `CSCCN(CCC1CCCCC1)C(=O)NCCCc1ccncc1` [Compound No. 5-1, 1-(2-Cyclohexylethyl)-1-[2-(methylthio)ethyl]-3-[3-(4-pyridyl)propyl]urea] it was 74.9%.
Take `CSCCN(CCC1CCCCC1)C(=O)NCc1ccncc1` [Compound No. 5-2, 1 (2-Cyclohexylethyl)-1-[2-(methylthio)ethyl]-3-(4-pyridylmethyl)urea]: the inhibition at 10 mg/kg in data set [1] is 81.2%.
As for `CC(=O)SCCN(CCC1CCCCC1)C(=O)NCc1ccncc1` [Compound No. 8-1, 1-[2-(Acetylthio)ethyl]-1-(2-cyclohexylethyl)-3-(4-pyridylmethyl)urea hydrochloride], in data set [1], the inhibition at 10 mg/kg turned out to be 80%.
`CC(=O)SCCN(CCC1CCCC1)C(=O)NCc1ccncc1` [Compound No. 8-3, 1-[2-(Acetylthio)ethyl]-1-(2-cyclopentylethyl)-3-(4-pyridylmethyl)urea hydrochloride]: the inhibition at 10 mg/kg in data set [1] came to 78.9%.
Still for that read-out and setting: next, `CC(=O)SCCN(CCC12CC3CC(CC(C3)C1)C2)C(=O)NCc1ccncc1` [Compound No. 8-4, 1-[2-(Acetylthio)ethyl]-1-[2-(1-adamantyl)ethyl]-3-(4-pyridylmethyl)urea hydrochloride]: 81%; `CC(=O)SCCN(CCC1=CCCCC1)C(=O)NCc1ccncc1` [Compound No. 8-10, 1-[2-(Acetylthio)ethyl]-1-[2-(1-cyclohexenyl)ethyl]-3-(4-pyridylmethyl)urea hydrochloride]: 69%; `O=C(NCCCc1ccncc1)N(CCS)CCC1CCCCC1` [Compound No. 8-11, 1-(2-Cyclohexylethyl)-1-(2-mercaptoethyl)-3-[3-(4-pyridyl)propyl]urea hydrochloride]: 63.6%.
